US20240197891A1, “PHARMACEUTICAL COMPOSITIONS COMPRISING POH DERIVATIVES” (UNIVERSITY OF SOUTHERN CALIFORNIA, priority 2021, published 2024)

Legend:
[1] = tested on: human malignant glioma cells U87, A172 and U251; experiment: MTT cytotoxicity assays on U87, A172 and U251 cells (stated jointly); type: cell-based
Description: J. of Immunological Methods 65: 55 63, 1983. […] Invasion inhibition may be studied by Boyden chambers.
Then U87, A172 and U251 cells were treated with dimethyl celecoxib bisPOH carbamate (POH-DMC) (e.g., synthesized by the method in Example 1), and the MTT cytotoxicity assays performed (FIG. 2).
Then TMZ-resistant glioma cell lines U87, A172 and U251 cells were treated with temozolomide POH carbamate (POH-TMZ) (e.g., synthesized by the method in Example 3).

[2] = tested on: TMZ resistant (U251TR) U251 cells; experiment: Colony forming assay, TMZ resistant U251TR cells; type: cell-based, human
Description: (§1) Colony forming assays were carried out after cells were treated with TMZ alone, POH alone, and the TMZ-POH conjugate. […] Cancer Lett. 2011 Mar. 28; 302(2):100-8.

[3] = tested on: USC-04 glioma cancer stem cells; experiment: MTT cytotoxicity assay, USC-04 glioma cancer stem cells; type: cell-based; details: USC-04; increasing concentrations (TMZ 0-400 uM; POH 0-2 mM)
Source text: (§2) Cancer Lett. 2011 Mar. 28; 302(2):100-8.

[4] = tested on: TMZ sensitive (U251) cells; experiment: Colony forming assay, TMZ sensitive U251 cells; type: cell-based, human; details: TMZ sensitive U251 cells
Description: as §1

[5] = tested on: USC-02 glioma cancer stem cells; experiment: MTT cytotoxicity assay, USC-02 glioma cancer stem cells; type: cell-based; details: USC-02; increasing concentrations (TMZ 0-400 uM; POH 0-2 mM)
Source text: as §2

TNF-α = experiment: Serum TNF-α following UV exposure; type: in vivo, mouse
Description: (§3) SKH-1 hairless mice were treated with 10 mg/kg POH-LA conjugate freshly prepared daily. The POH-LA conjugate was formulated in glycerol:ethanol (90:10) while the control animals received the glycerol:ethanol vehicle only or the commercially available sunblock (Well & Good Sun Protection Wipes SPF 15). Additional test groups were treated with POH formulated in the glycerol:ethanol vehicle or linoleic acid formulated in the glycerol:ethanol vehicle. 50 μL of each formulation was placed on a area 1 cm^2 area that was exposed to the UV light. The mice were treated with their respective formulations after exposure to the UV light. In FIG. 22A, the mouse was treated with sunblock. In FIG. 22B, the mouse was treated with POH. In FIG. 22C, the mouse was treated with linoleic acid. In FIG. 22D, the mouse was treated with POH-LA conjugate. In FIG. 22D, the mouse was treated with the glycerol:ethanol vehicle only. The POH-LA conjugate, POH or linoleic acid solutions were gently spread on the skin surface and allowed to air dry. The sunblock mouse was gently wiped on the exposure area with the sunblock towelette. This exposure and treatment went on for a maximum of 10 weeks. Throughout the experimental period the animals were photographed and weighed. At the end of the experimental period the mice were photographed and euthanized, followed by skin and blood collection. Blood was analyzed for markers of inflammation and DNA recovered from the exposed area of the skin and analyzed for markers of DNA damage.
(§4) Furthermore, blood samples were taken from each mouse 4 hours after the last cutaneous treatment. About 0.5 mL of blood was collected by cardiac puncture […]. Serum was aliquoted in Eppendorf tubes and store at −80° C. as preparation for cytokine analyses. […]
(§5) Mice were treated with 10 mg/kg POH-LA conjugate freshly prepared daily. […] Blood was analyzed for markers of inflammation and DNA recovered from the exposed area of the skin and analyzed for markers of DNA damage.

IL-6 = experiment: Serum IL-6 following UV exposure; type: in vivo, mouse
Description: as §3, with “In FIG. 22D, the mouse was treated with the glycerol:ethanol vehicle only.” left out
as §4, §5

UV-B exposed skin = experiment: UV-B induced skin damage in SKH-1 hairless mice; type: in vivo, mouse; details: topical post exposure
Description: (§6) FIG. 23 illustrates the simulation of sunlight by irradiation with UVB lamps (310 nm). The irradiation was conducted in a phototoxicity testing chamber and fitted with a UV-B lamp providing with a spectral output of approximately 310 nm. The source of UVR was a short-wavelength UV lamp (VWR. Radnor, PA). The peak spectral output of this lamp was approximately 310 nm, with no energy detectable below 260 nm, approximately 0.6% between 260 and 280 nm (UV-C), 72.7% between 280 and 320 nm (UV-B), and 26.7% between 320 and 400 nm (UV-A). Radiation dosage of UV-B per irradiation was set at 54 mJ/cm^2 for the first week, 72 mJ/cm^2 for the second week, 90 mJ/cm^2 for the third week, and 108 mJ/cm^2 for the remaining weeks, as confirmed by a UV monitor. Each irradiation event was 10 minutes long.
POH-LA conjugate, linoleic acid, POH, and the additive combination of linoleic acid and POH were each suspended in glycerol:ethanol (90:10 vol/vol) to a final concentration of 10 nM with 50 μL and applied to each SKH-1 hairless mouse post UV-B exposure for treatment. The sunblock mouse was gently wiped on the exposure area with the sunblock towelette. […] In FIG. 23B, the mice were treated with the glycerol:ethanol vehicle only. In FIG. 23C, the mice were treated with POH. In FIG. 23D, the mice were treated with linoleic acid. In FIG. 23E, the mice were treated with an mixture of linoleic acid and POH. In FIG. 23F, the mice were treated with POH-LA conjugate. In FIG. 23G, the mice were treated with sunblock. The application of POH-LA conjugate to UV-B exposed tissue limits the amount of observable skin damage as compared to the untreated control (B) or the individual components of POH-LA conjugate either alone (POH—C and LA—D), in mixture (E), or with sunblock (G).
as §6, with “FIGS. 24A-D illustrates the” for “FIG. 23 illustrates the”, “UV lamp (VWR, Radnor, PA).” for “UV lamp (VWR. Radnor, PA).”, “second week, and 90 mJ/cm^2” for “second week, 90 mJ/cm^2”, “third week, as confirmed” for “third week, and 108 mJ/cm^2 for the remaining weeks, as confirmed”, “UV monitor.” for “UV monitor. Each irradiation event was 10 minutes long.”
POH-LA conjugate (FIG. 24A), linoleic acid (FIG. 24B), POH (FIG. 24C), and the additive combination of linoleic acid and POH (FIG. 24D) were each suspended in glycerol:ethanol (90:10 vol/vol) to a final concentration of 10 nM with 50 μL applied to each mouse post UV-B exposure for treatment. The application of POH-LA conjugate to UV-B exposed tissue limits the amount of observable skin damage as compared the individual components of POH-LA conjugate either alone or in mixture.
as §6, with “This example” for “FIG. 23”, “nm)” for “nm). The irradiation”, “(VWR,” for “(VWR.”, “monitor.” for “monitor. Each irradiation event was 10 minutes long.”
POH-LA conjugate, linoleic acid, POH, and the additive combination of linoleic acid and POH were each suspended in glycerol:ethanol (90:10 vol/vol) to a final concentration of 10 nM with 50 μL applied to each mouse post UV-B exposure for treatment. […]

IL-1β = experiment: Serum IL-1β following UV exposure; type: in vivo, mouse
Description: as §3, §4, §5

U87 human glioma cells = experiment: MTT cytotoxicity assay, U87 cells; type: cell-based; details: Homo sapiens, U-87 MG, U-87 cells, 48 hours
Source text: (§7) In vitro efficacy of the present composition can be determined using methods well known in the art. For example, the cytotoxicity of the present monoterpene (or sesquiterpene) and/or the therapeutic agents may be studied by MTT [3-(4,5-dimethylthiazol-2-yl)-2,5-diphenyl tetrazolium bromide] cytotoxicity assay. MTT assay is based on the principle of uptake of MTT, a tetrazolium salt, by metabolically active cells where it is metabolized into a blue colored formazan product, which can be read spectrometrically. J. of Immunological Methods 65: 55 63, 1983. The cytotoxicity of the present monoterpene (or sesquiterpene) derivative and/or the therapeutic agents may be studied by colony formation assay. Functional assays for inhibition of VEGF secretion and IL-8 secretion may be performed via ELISA. Cell cycle block by the present monoterpene (or sesquiterpene) derivative and/or the therapeutic agents may be studied by standard propidium iodide (PI) staining and flow cytometry. Invasion inhibition may be studied by Boyden chambers. In this assay a layer of reconstituted basement membrane, Matrigel, is coated onto chemotaxis filters and acts as a barrier to the migration of cells in the Boyden chambers. Only cells with invasive capacity can cross the Matrigel barrier. Other assays include, but are not limited to cell viability assays, apoptosis assays, and morphological assays. […]

A172 human glioma cells = experiment: MTT cytotoxicity assay, A172 cells; type: cell-based; details: Homo sapiens, A-172 cells, 48 hours
Source text: as §7

U251 human glioma cells = experiment: MTT cytotoxicity assay, U251 cells
Source text: (§8) In vitro efficacy of the present composition can be determined using methods well known in the art. For example, the cytotoxicity of the present monoterpene (or sesquiterpene) and/or the therapeutic agents may be studied by MTT [3-(4,5-dimethylthiazol-2-yl)-2,5-diphenyl tetrazolium bromide] cytotoxicity assay. MTT assay is based on the principle of uptake of MTT, a tetrazolium salt, by metabolically active cells where it is metabolized into a blue colored formazan product, which can be read spectrometrically. J. of Immunological Methods 65: 55 63, 1983. The cytotoxicity of the present monoterpene (or sesquiterpene) derivative and/or the therapeutic agents may be studied by colony formation assay. Functional assays for inhibition of VEGF secretion and IL-8 secretion may be performed via ELISA. Cell cycle block by the present monoterpene (or sesquiterpene) derivative and/or the therapeutic agents may be studied by standard propidium iodide (PI) staining and flow cytometry. Invasion inhibition may be studied by Boyden chambers. In this assay a layer of reconstituted basement membrane, Matrigel, is coated onto chemotaxis filters and acts as a barrier to the migration of cells in the Boyden chambers. Only cells with invasive capacity can cross the Matrigel barrier. Other assays include, but are not limited to cell viability assays, apoptosis assays, and morphological assays.
(§9) To compare the cytotoxicity of Rolipram POH Carbamate (POH-Rolipram) (e.g., synthesized by the method in Example 5) with rolipram, […] inducing differentiation and apoptosis in glioma cells, A172, U87, U251 and LN229 human glioma cells were treated with either POH-Rolipram or rolipram for 48 hours.
MTT cytotoxicity assays were carried out after cells were treated with the TMZ-POH conjugate. The MTT cytotoxicity assays were carried out as described in Chen T C, et al. Green tea epigallocatechin gallate enhances therapeutic efficacy of temozolomide in orthotopic mouse glioblastoma models. Cancer Lett. 2011 Mar. 28; 302(2):100-8.

LN229 human glioma cells = experiment: cells; details: Homo sapiens, LN-229, 48 h
Source text: as §8, §9

## C=C(C)C1CC=C(COC(=O)N(C(=O)OCC2=CCC(C(=C)C)CC2)S(=O)(=O)c2ccc(-n3nc(C(F)(F)F)cc3-c3cc(C)ccc3C)cc2)CC1 (stereo not shown) [POH-DMC]
[1]
  cytotoxicity / kill rates (MTT): much better cytotoxicity than DMC alone

## Cn1nnc2c(C(N)=O)ncn2c1=O [TMZ, temozolomide]
[2]
  cytotoxicity (colony forming assay): minimal cytotoxicity
[1]
  cytotoxicity / kill rates (MTT): minimal cytotoxicity
[3]
  cytotoxicity (MTT): did not induce significant cytotoxicity
[4]
  cytotoxicity (colony forming assay): demonstrated cytotoxicity
[5]
  cytotoxicity (MTT): did not induce significant cytotoxicity

## CCCCC/C=C\C/C=C\CCCCCCCC(=O)O [linoleic acid]
TNF-α
  TNF-α levels: 126.9 ± 14.6 pg/mL
IL-6
  IL-6 levels: 18.3 ± 3.4 pg/mL
UV-B exposed skin; 3 weeks of UV-B exposure and treatment
  observable skin damage: displayed damage
UV-B exposed skin; 5 weeks of UV-B exposure and treatment
  observable skin damage: displayed damage
IL-1β
  IL-1β serum levels increase: 8.3 ± 2.1 pg/mL

## COc1ccc(C2CNC(=O)C2)cc1OC1CCCC1 (stereo not shown) [rolipram, reference compound]
U87 human glioma cells
  IC50: > 1000 µM
A172 human glioma cells
  IC50: ~1000 µM
U251 human glioma cells
  plateau cytotoxicity: 60%
U251 human glioma cells; Homo sapiens, U-251, 48 h
  IC50: 170 µM
LN229 human glioma cells
  IC50: > 100 µM
